Data taken from patent US8431563B2 (priority 2010, dated 2013).
Where a name gives a salt, the structure may show the parent alone.

These molecules were tested against T1, interaction between glucokinase (GK) and glucokinase regulatory protein (GKRP) (Homo sapiens, UniProt Q14397) (assay: biochemical). Conditions: GK-GKRP IC50 (Binding), avi-tagged GKRP, GK-fluorescein, AlphaScreen beads.
T1 sequence (Q14397 1-625): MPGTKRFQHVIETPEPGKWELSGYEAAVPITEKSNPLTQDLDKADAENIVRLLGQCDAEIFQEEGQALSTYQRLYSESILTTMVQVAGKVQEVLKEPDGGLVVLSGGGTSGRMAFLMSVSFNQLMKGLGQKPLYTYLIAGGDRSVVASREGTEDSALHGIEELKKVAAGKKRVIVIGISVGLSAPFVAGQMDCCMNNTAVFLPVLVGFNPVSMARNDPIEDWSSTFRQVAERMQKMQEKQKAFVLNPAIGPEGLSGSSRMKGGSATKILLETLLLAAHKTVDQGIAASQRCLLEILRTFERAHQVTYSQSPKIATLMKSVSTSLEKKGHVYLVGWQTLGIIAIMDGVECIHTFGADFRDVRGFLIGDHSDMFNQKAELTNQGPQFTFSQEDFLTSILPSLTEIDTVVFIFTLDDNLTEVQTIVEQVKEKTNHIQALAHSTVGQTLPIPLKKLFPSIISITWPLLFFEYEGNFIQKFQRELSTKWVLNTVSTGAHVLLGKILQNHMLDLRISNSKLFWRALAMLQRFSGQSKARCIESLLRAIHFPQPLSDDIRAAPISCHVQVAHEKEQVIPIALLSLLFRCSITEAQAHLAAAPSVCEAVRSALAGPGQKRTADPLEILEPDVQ
Type: binding
Procedure: GK-GKRP Binding Assay Protocol
This assay is used to directly measure the interaction between glucokinase (GK) and glucokinase regulatory protein (GKRP). Begin by preparing the following solutions. Assay Buffer: 20 mM Tris, pH 7.5/0.05% BSA/1 mM DTT/1 μM sorbitol-6-phosphate. […] Combine the following reagents in a white 96-well half area plate. Pipette 14 μl of the diluted avi-tagged GKRP into each well. Add 1 μl of compound to be tested and incubate at room temperature for 20 minutes. After 20 minutes, add 5 μl of assay buffer containing 6 nM GK-fluorescein. […] Incubate in a dark room for 2 hours at room temperature. After 2 hours read the plate using an Envision plate reader (Perkin Elmer, Waltham Mass.).

SMILES | IC50 [nM]
CC(O)(c1ccc(N2CCN(S(=O)(=O)c3cccs3)C[C@@H]2CNC2CC2)cc1)C(F)(F)F (mixture of isomers) [Example 199, 2-(4-((2S)-2-((cyclopropylamino)methyl)-4-(2-thiophenylsulfonyl)-1-piperazinyl)phenyl)-1,1,1-trifluoro-2-propanol] | 713
NCC#Cc1cc(C(O)(C(F)(F)F)C(F)(F)F)ccc1N1CCN(S(=O)(=O)c2cccs2)CC1 [Example 159, 2-(3-(3-amino-1-propyn-1-yl)-4-(4-(2-thiophenylsulfonyl)-1-piperazinyl)phenyl)-1,1,1,3,3,3-hexafluoro-2-propanol trifluoroacetate] | 1920

Same assay, conditions: avi-tagged GKRP, GK-fluorescein, AlphaScreen beads; read-out: GK-GKRP IC50 (Binding)

SMILES | IC50 [nM]
CC(O)(c1ccc(N2CCN(S(=O)(=O)c3cccs3)C[C@@H]2C[S+]([O-])c2cccc(F)c2)cc1)C(F)(F)F (single isomer, unassigned) [Example 189 Peak#3] | 535
COC(C#Cc1cc(C(O)(C(F)(F)F)C(F)(F)F)ccc1N1CCN(S(=O)(=O)c2cccs2)CC1)C(C)C (racemic) [Example 157, 1,1,1,3,3,3-hexafluoro-2-(3-(3-methoxy-4-methyl-1-pentyn-1-yl)-4-(4-(2-thiophenylsulfonyl)-1-piperazinyl)phenyl)-2-propanol] | 658
O=S(=O)(c1cccs1)N1CCN(c2ccc(C(O)(C(F)(F)F)C(F)(F)F)cc2)C(Cc2ccc(O)cc2)C1 (racemic) [Example 177, 4-((1-(4-(1,1,1,3,3,3-hexafluoro-2-hydroxypropan-2-yl)phenyl)-4-(thiophen-2-ylsulfonyl)piperazin-2-yl)methyl)phenol] | 786
CC(O)(c1ccc(N2CCN(S(=O)(=O)c3cccs3)C[C@@H]2CN2CCNC(=O)C2)cc1)C(F)(F)F (mixture of isomers) [Example 179, 4-(((2S)-4-(2-thiophensulfonyl)-1-(4-(2,2,2-trifluoro-1-hydroxy-1-methylethyl)phenyl)-2-piperazinyl)methyl)-2-piperazinone] | 542
CC(O)(c1ccc(N2CCN(S(=O)(=O)c3cccs3)C[C@@H]2C[S+]([O-])c2cccc(F)c2)cc1)C(F)(F)F (single isomer, unassigned) [Example 189 Peak#2] | 717
CC(C)(C)OC(=O)NCC#Cc1cc(C(O)(C(F)(F)F)C(F)(F)F)ccc1N1CCN(S(=O)(=O)c2cccs2)CC1 [Example 158, tert-butyl (3-(2-(4-(2-thiophenylsulfonyl)-1-piperazinyl)-5-(2,2,2-trifluoro-1-hydroxy-1-(trifluoromethyl)ethyl)phenyl)-2-propyn-1-yl)carbamate] | 695
C[C@H]1CN(S(=O)(=O)c2cnc(N)s2)CCN1c1ncc(C(O)(C(F)(F)F)C(F)(F)F)cn1 [Example 147, 2-(2-((2S)-4-((2-amino-1,3-thiazol-5-yl)sulfonyl)-2-methyl-1-piperazinyl)-5-pyrimidinyl)-1,1,1,3,3,3-hexafluoro-2-propanol] | 998
COc1ccc(CC2CN(S(=O)(=O)c3cccs3)CCN2c2ccc(C(O)(C(F)(F)F)C(F)(F)F)cc2)cc1 (racemic) [Example 175, 1,1,1,3,3,3-hexafluoro-2-(4-(2-(4-methoxybenzyl)-4-(thiophen-2-ylsulfonyl)piperazin-1-yl)phenyl)-2-propanol] | 2870
CC(c1ccccc1)N(C[C@H]1CN(S(=O)(=O)c2cccs2)CCN1c1ccc(C(C)(O)C(F)(F)F)cc1)S(C)(=O)=O (mixture of isomers) [Example 222, N-(1-phenylethyl)-N-(((2R)-4-(2-thiophenylsulfonyl)-1-(4-(2,2,2-trifluoro-1-hydroxy-1-methylethyl)phenyl)-2-piperazinyl)methyl)methanesulfonamide] | 671
C[C@H]1COCCN1C[C@H]1CN(S(=O)(=O)c2cccs2)CCN1c1ccc(C(O)(C(F)(F)F)C(F)(F)F)cc1 [Example 132, 1,1,1,3,3,3-hexafluoro-2-(4-((2S)-2-(((3S)-3-methyl-4-morpholinyl)methyl)-4-(2-thiophenylsulfonyl)-1-piperazinyl)phenyl)-2-propanol] | 6
